Laboratory results published in the supplement of paper PMC10307832.

Assays:
Test in all cases: relative viability (nuclei count vs DMSO), 5 days (fraction); higher = more cells survive
[1] = compound: CN1CCN(CC1)C2=CC(=C(C=C2)NC3=NC=C4C(=N3)N(C5=CC=CC=C5C(=O)N4C)C)OC [XMD8-85] + Nc1ncn([C@H]2C[C@H](O)[C@@H](CO)O2)c(=O)n1 [Decitabine] (partner 2 µM)
Procedure, shortened: (§1)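 After 5 days of treatment, lung cancer cells in 1536-well plates were fixed and stained in a single step (final 0.05% Triton X-100, 1% formaldehyde, 1 ug/ml Hoechst) and their nuclei counted on 4× images. Treatment had been applied by pin tool the day after seeding as one drug alone or as a fixed anchor-drug dose with five library-drug doses (not always all listed) in √10 steps. Relative viability is the nuclei count of treated wells divided by that of vehicle wells, and values are medians of duplicate plates.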

[2] = compound: CN1CCN(CC1)C2=CC(=C(C=C2)NC3=NC=C4C(=N3)N(C5=CC=CC=C5C(=O)N4C)C)OC [XMD8-85] + O=C(CCCCCCC(=O)Nc1ccccc1)NO [Vorinostat] (partner 1 µM)
Procedure, shortened: as §1

[3] = compound: O=C(O)C(Cc1ccccc1[N+](=O)[O-])=NNc1nc(-c2ccc(Cl)c(Cl)c2)cs1 (mixture of isomers) [4EGI-1] + Cc1nc(NC(=O)N2CCC[C@H]2C(N)=O)sc1-c1ccnc(C(C)(C)C(F)(F)F)c1 [Alpelisib] (partner 2 µM)
Procedure, shortened: as §1

[4] = compound: O=C(O)C(Cc1ccccc1[N+](=O)[O-])=NNc1nc(-c2ccc(Cl)c(Cl)c2)cs1 (mixture of isomers) [4EGI-1] + CS(=O)(=O)CCNCc1ccc(-c2ccc3ncnc(Nc4ccc(OCc5cccc(F)c5)c(Cl)c4)c3c2)o1 [Lapatinib] (partner 2 µM)
Procedure, shortened: as §1

| Cell Line | relative viability ([1]; first compound 0.253 µM) | relative viability ([1]; first compound 0.8 µM) | relative viability ([1]; first compound 2.53 µM) | relative viability ([1]; first compound 8 µM) | relative viability ([2]; first compound 0.08 µM) | relative viability ([2]; first compound 0.253 µM) | relative viability ([2]; first compound 2.53 µM) | relative viability ([2]; first compound 8 µM) | relative viability ([3]; first compound 0.5 µM) | relative viability ([3]; first compound 1.581 µM) | relative viability ([3]; first compound 5 µM) | relative viability ([3]; first compound 15.81 µM) | relative viability ([3]; first compound 50 µM) | relative viability ([4]; first compound 0.5 µM) | relative viability ([4]; first compound 1.581 µM) | relative viability ([4]; first compound 5 µM) | relative viability ([4]; first compound 15.81 µM) | relative viability ([4]; first compound 50 µM) | relative viability ([1]; first compound 0.08 µM) | relative viability ([2]; first compound 0.8 µM) |
| --- | --- | --- | --- | --- | --- | --- | --- | --- | --- | --- | --- | --- | --- | --- | --- | --- | --- | --- | --- | --- |
| NCI-H520 | 0.506 | 0.496 | 0.528 | 0.429 | 0.774 | 0.69 | 0.673 | 0.331 | 0.918 | 0.754 | 1.02 | 0.866 | 0.543 | 0.98 | 0.882 | 0.963 | 0.738 | 0.144 | – | – |
| NCI-H647 | 0.357 | 0.417 | 0.45 | 0.327 | 0.573 | 0.746 | 0.632 | 0.346 | 1.16 | 1.17 | 1.41 | 0.647 | 0.108 | 1.03 | 0.989 | 1.08 | 0.505 | 0.124 | 0.43 | 0.673 |
| 201T | 0.865 | 0.883 | 0.82 | 0.689 | 1.01 | 1.03 | 0.978 | 0.741 | 1.03 | 0.997 | 1.09 | 1.03 | 0.97 | 1.04 | 0.986 | 1.04 | 1.02 | 0.659 | 0.867 | 0.961 |
| COR-L 105 | 0.731 | 0.7 | 0.537 | 0.466 | 0.737 | 0.91 | 0.661 | 0.543 | 1.2 | 0.818 | 1.04 | 0.89 | 0.599 | 0.421 | 0.38 | 0.371 | 0.343 | 0.293 | – | 0.768 |
| IA-LM | – | – | – | – | 0.824 | 0.731 | 0.662 | 0.588 | 0.916 | 0.647 | 0.586 | 0.149 | 0.0833 | 0.886 | 0.589 | 0.581 | 0.109 | 0.0728 | – | 0.812 |
| NCI-H2342 | 0.709 | 0.677 | 0.777 | 0.867 | 0.767 | 0.75 | 0.927 | 0.991 | – | – | – | – | – | – | – | – | – | – | 0.7 | 0.72 |
| NCI-H1648 | 0.447 | 0.635 | 0.638 | 0.561 | 0.522 | 0.474 | 0.244 | 0.292 | – | – | – | – | – | – | – | – | – | – | 0.478 | 0.265 |
| NCI-H1703 | – | – | – | – | – | – | – | – | 0.414 | 0.305 | 0.387 | 0.338 | 0.381 | 1.46 | 0.955 | 1.17 | 1.22 | 0.437 | – | – |
| ChaGo-K-1 | 0.521 | 0.551 | 0.525 | 0.45 | 0.751 | 0.782 | 0.81 | 0.619 | – | – | – | – | – | – | – | – | – | – | 0.553 | 0.76 |
| SW 900 | 0.45 | 0.406 | 0.458 | 0.506 | 0.372 | 0.584 | 0.671 | 0.188 | – | – | – | – | – | – | – | – | – | – | 0.505 | 0.434 |
| NCI-H441 | 0.245 | 0.256 | 0.261 | 0.205 | 0.72 | 0.666 | 1.02 | 0.698 | 0.787 | 0.758 | 0.656 | 0.743 | 0.301 | – | – | – | – | – | 0.256 | 0.859 |
| NCI-H2228 | – | – | – | – | 0.523 | 0.59 | 0.842 | 0.392 | 0.664 | 0.672 | 0.82 | 0.61 | 0.177 | 1.36 | 1.1 | 1.03 | 0.803 | 0.172 | – | 0.585 |
| NCI-H522 | 0.669 | 0.615 | 0.782 | 0.635 | 0.936 | 0.877 | 0.884 | 0.654 | – | – | – | – | – | – | – | – | – | – | 0.739 | 0.918 |
| EBC-1 | – | – | – | – | – | – | – | – | 0.947 | 0.876 | 1.08 | 0.477 | 0.273 | 0.205 | 0.246 | 0.201 | 0.217 | 0.166 | – | – |
| LCLC-103H | 0.763 | 0.713 | 0.688 | 0.605 | 0.799 | 0.77 | 0.801 | 0.585 | 1.01 | 0.866 | 0.866 | 0.879 | 0.879 | – | – | – | – | – | 0.789 | 0.784 |
| NCI-H1650 | 0.414 | 0.487 | 0.374 | 0.371 | 0.674 | 0.596 | 0.578 | 0.253 | – | – | – | – | – | 0.953 | – | 0.825 | 0.374 | 0.256 | 0.539 | 0.594 |
| CAL-12T | – | – | – | – | 0.724 | 0.861 | 0.602 | 0.534 | 1.24 | – | 1.28 | 1.25 | 1.15 | – | – | 0.634 | 0.701 | 0.529 | – | – |
| NCI-H1299 | – | – | – | – | – | – | – | – | 1.03 | 1.08 | 0.989 | 0.955 | 1.04 | 0.932 | 0.957 | 1.02 | 0.987 | 0.357 | – | – |
| Calu-6 | – | – | – | – | – | – | – | – | 1.08 | 0.493 | 1.21 | 0.933 | 0.375 | 1.07 | 1 | 1.03 | 1 | 0.206 | – | – |
| NCI-H1563 | – | – | – | – | – | – | – | – | 0.998 | 0.884 | 0.983 | 0.906 | 0.697 | 1.11 | 0.809 | 0.994 | 0.393 | 0.536 | – | – |
| A549 | 0.252 | 0.237 | 0.369 | 0.384 | – | – | – | – | 0.801 | 0.479 | 0.984 | 0.611 | 0.273 | 1.15 | 1.04 | 1.09 | 0.77 | 0.0791 | 0.296 | – |
